# Results reported in article PMC9793460, “Food effect risk assessment in preformulation stage using material sparing μFLUX methodology” (ADMET & DMPK, 2022).
# Counter-ions that a name gives are not always drawn. Like-named read-outs stand apart in the source and are kept apart here. Marks after values point to notes of the source that are not given here.
# Key:
# [1] = μFLUX dissolution/flux test, FaSSIF or FeSSIF donor, acceptor sink buffer receiver; assay type: in vitro ADME; details: for Flux Fa (±SD; n=3) / Flux Fe (±SD; n=3): unformulated powder, initial flux excluding lag time, 37 °C; for Flux Ratios (Fed/Fasted): FeSSIF/FaSSIF; for Food effect indicated by flux ratio: prediction from FeSSIF/FaSSIF flux ratio
# Protocol: Dissolution/flux tests were performed using a μFLUX apparatus (Pion Inc., Billerica, MA, USA) with 4 side-by-side donor-receiver chambers separated by a lipophilic barrier. Prior to the assay, the artificial GIT-mimicking membrane was prepared by impregnating a PVDF filter support material (polyvinylidenfluoride, 1.54 cm^2 open area, 0.45 μm pore size, 120 μm thickness, 70 % nominal porosity) with 25 μL of 20 % lecithin in dodecane lipid solution (GIT Lipid, Pion Inc., Billerica, MA, USA). The donor chambers were then filled with 20 ml of biorelevant media (FaSSIF or FeSSIF) while the receiver compartments were filled with 20 ml of acceptor sink buffer (ASB, Pion Inc., Billerica, MA, USA). The ASB is a HEPES (4-(2-hydroxyethyl)-1-piperazineethanesulfonic acid) based pH 7.4 buffer containing chemical scavengers (surfactants micelles) that allow to maintain sink conditions during the experiments. The composition of the membrane and the receiver solution are identical to the Double-Sink PAMPA model, a non-cell-based method predicting of passive transcellular intestinal absorption. The temperature in both chambers was maintained at 37 °C and the media were stirred at 100 rpm.
# Model compounds were added at the start of the experiment in the donor chambers as unformulated powder at a solid load equivalent to the lowest marketed dose normalized to 250 mL stomach volume. In some cases, to counter for experimental limitation due to low signal detection or high turbidity, a higher or lower dose was selected.
# Standards for each model compound were prepared by sequential addition of a stock solution of pure API pre-dissolved in organic solvents (either methanol or DMSO) to the corresponding medium. The area under the 2nd derivative spectra curves was used to calculate the concentrations. The wavelength range was selected individually for each compound in the way to avoid sensitivity issues. […] The drug concentration in the donor and receiver chambers was calculated from the UV absorbance of the samples using the corresponding standard curve. For samples with low permeability, an additional μFLUX donor-receiver pair containing described reagents except API was included in parallels and used as a corrective “blank” at the corresponding time point to ensure that the UV signal of API could be differentiated from the spectral noise of the biorelevant media. Concentration-time profiles were monitored over at least 180 min, in triplicate for each drug unless otherwise mentioned.
# The flux (J) across the membrane representing the amount (m) of material crossing one unit area (A) of the membrane per unit time (t), was calculated from the concentration-time profiles in the receiver compartments:
# A is the area of the membrane (1.54 cm^2), V is the volume of the receiver compartment (20 mL) and dc/dt (μg mL^-1 min^-1) is the slope of the concentration time profile of the drug in the receiver compartment.
# The flux values were calculated by fitting the concentration-time profile in the receivers to a straight line to determine the slope and then normalizing the slope to the volume and surface area of the membrane following equation (1). Time intervals to calculate the flux were selected based on the apparent linearity of the concentration-time profile in the receivers, capturing the initial flux process and excluding the lag time unless otherwise is stated.
# [2] = cited from earlier work; for FE (food effect observed in clinic): assigned from AUC and Cmax ratios of published clinical data; for Observed AUC Ratio (Fed/Fasted) / Observed Cmax Ratio (Fed/Fasted): ratio of geometric means fed/fasted, published clinical data
# [3] = Solubility in biorelevant media (FaSSIF / FeSSIF); assay type: physicochemical; details: for Solubility ratio (Fed/Fasted): FeSSIF/FaSSIF, calculated from Table 2 solubilities; for Food effect indicated by solubility ratio: prediction from FeSSIF/FaSSIF solubility ratio
# Protocol: Solubility measurements were performed by adding an excess amount of drug into FaSSIF or FeSSIF media in a glass vial. […] After equilibration, samples were centrifuged/filtered using NANOSEP with 0.2 μm Bio-inert centrifugal devices (PAL Corporation). The filtrate was immediately diluted accordingly into acetonitrile/water 50/50 and analyzed by HPLC.
# Model drugs categorized as BCS I - IV classes were selected. The drugs included mono- and diprotic acids and bases as well as non-ionizable compounds. […] The physicochemical properties of the model compounds, pKa, log P [18, 19] and solubility in biorelevant media [[20-26]] were collected from the literature and are depicted in Table 2.
# [4] = cited from earlier work; for Solubility FeSSIF (pH 5.0) / Solubility FaSSIF (pH 6.5): some values determined in the authors' lab (not marked)
# [5] = cited from earlier work; for pKa: experimental, higher pKa where two are given; for Type: ionization type
# [6] = experimental; cited from earlier work
# [7] = μFLUX dissolution/flux test, FaSSIF or FeSSIF donor, acceptor sink buffer receiver; assay type: in vitro ADME; details: 0.4 mg/mL
Flux Fa (±SD; n=3) ([1]; FaSSIF donor),Flux Fe (±SD; n=3) ([1]; FeSSIF donor),Flux Ratios (Fed/Fasted) [1],Food effect indicated by flux ratio [1],Solubility ratio (Fed/Fasted) [3],Food effect indicated by solubility ratio [3],Compound,FE (food effect observed in clinic) [2],Solubility FeSSIF (pH 5.0) [4],Observed AUC Ratio (Fed/Fasted) [2],Observed Cmax Ratio (Fed/Fasted) [2],Solubility FaSSIF (pH 6.5) [4],further results
1.751 ± 0.540,2.168 ± 0.323,1.24,no food effect,3.85,positive food effect,"COC(=O)[C@H](c1ccccc1Cl)N1CCc2sccc2C1 [Clopidogrel bisulfate, clopidogrel bisulfate]",none,500 μg/mL,1.02,0.79,130 μg/mL,FE (food effect observed in clinic) ([2]; listed as clopidogrel bisulfate): no food effect
0.018 ± 0.003,0.208 ± 0.036,–,–,–,–,"NS(=O)(=O)c1cc(C(=O)O)c(NCc2ccco2)cc1Cl [Furosemide, furosemide]",negative,–,–,–,–,"fraction of drug deprotonated ([5]; pH 5.0, species distribution curve): ~ 97%; FE (food effect observed in clinic) ([2]; listed as furosemide): negative food effect"
0.205 ± 0.011,0.218 ± 0.009,–,–,–,–,COC1=CC(=O)C[C@@H](C)[C@]12Oc1c(Cl)c(OC)cc(OC)c1C2=O [Griseofulvin],–,29.2 μg/mL,–,–,23.4 μg/mL,Type [5]: N; log P [6]: 2.2
0.521 ± 0.179,1.077 ± 0.084,2.07,negative food effect,1.52,positive food effect,"CCc1nn(CCCN2CCN(c3cccc(Cl)c3)CC2)c(=O)n1CCOc1ccccc1 [Nefazodone HCl, nefazodone hydrochloride]",negative food effect,383 μg/mL,0.78,0.93,252 μg/mL,"Flux Fa (±SD; n=3), suspension ([7]; FaSSIF donor, sample introduced as slurry of DS in the medium): 2.610 ± 0.618; Flux Fe (±SD; n=3), suspension ([7]; FeSSIF donor, sample introduced as slurry of DS in the medium): 1.923 ± 0.547; Flux Ratios (Fed/Fasted), suspension ([7]; FeSSIF/FaSSIF, sample introduced as slurry): 0.74"
0.037 ± 0.007,0.034 ± 0.002,–,–,–,–,"Cc1cn([C@H]2C[C@H](N=[N+]=[N-])[C@@H](CO)O2)c(=O)[nH]c1=O [Zidovudine, zidovudine]",negative food effect,–,–,–,–,pKa [5]: 9.40 ± 0.01^a; log P [6]: 0.13

# The remaining lines, values behind:
Compound,Flux Fa (±SD; n=3) ([1]; FaSSIF donor),Flux Fe (±SD; n=3) ([1]; FeSSIF donor),Flux Ratios (Fed/Fasted) [1],Food effect indicated by flux ratio [1],Solubility ratio (Fed/Fasted) [3],Food effect indicated by solubility ratio [3],FE (food effect observed in clinic) [2],Solubility FeSSIF (pH 5.0) [4],Observed AUC Ratio (Fed/Fasted) [2],Observed Cmax Ratio (Fed/Fasted) [2],Solubility FaSSIF (pH 6.5) [4],further results
"CCCCc1oc2ccccc2c1C(=O)c1cc(I)c(OCCN(CC)CC)c(I)c1 [Amiodarone, Amiodarone hydrochloride]",–,–,–,–,–,–,positive food effect,–,–,–,–,"Flux Fa (±SD; n=3), early ([1]; FaSSIF donor, early flux, first 2 hours excluding lag time): 0.017± 0.003; Flux Fa (±SD; n=3), late ([1]; FaSSIF donor, late flux, 2.5-9 hours interval): 0.579 ± 0.095; Flux Fe (±SD; n=3), early ([1]; FeSSIF donor, early flux, first 2 hours excluding lag time): 0.073 ± 0.001; Flux Fe (±SD; n=3), late ([1]; FeSSIF donor, late flux, 2.5-9 hours interval): 1.277± 0.109"
"Cc1ccc(-c2cc(C(F)(F)F)nn2-c2ccc(S(N)(=O)=O)cc2)cc1 [Celecoxib, celecoxib]",0.186 ± 0.021,0.632 ± 0.077,3.4,positive food effect,2.24,positive food effect,positive,103.3 μg/mL,1.19,1.29,–,pKa [5]: 9.38 ± 0.08^a; FE (food effect observed in clinic) ([2]; listed as celecoxib): positive food effect
"C#C[C@]1(O)CC[C@H]2[C@@H]3CCC4=Cc5oncc5C[C@]4(C)[C@H]3CC[C@@]21C [Danazol, danazol]",–,–,–,–,–,–,–,–,–,–,–,Type [5]: N
"CNCCC(Oc1ccc(C(F)(F)F)cc1)c1ccccc1 (centres unmarked) [Fluoxetine HCl, fluoxetine hydrochloride]",–,–,–,–,–,–,none,–,–,–,–,FE (food effect observed in clinic) ([2]; listed as FXT): not influenced by presence or absence of food
"NNC(=O)c1ccncc1 [Isoniazid, isoniazid]",0.020 ± 0,0.020 ± 0,–,–,–,–,negative food effect,"> 60,000 μg/mL",0.88,0.49,"> 60,000 μg/mL",Solubility in FaSSIF ([4]; FaSSIF): > 60 mg/mL; Solubility in FeSSIF ([4]; FeSSIF): > 60 mg/mL
